What was measured:
[1] = test system: rat t-MCAo model; experiment: Infarct volume in rat transient MCA occlusion (t-MCAo) model; format: in vivo, Wistar rats; conditions: 0.1 mg/kg/min, intravenous 1 hour infusion immediately after reperfusion; 71 hrs after reperfusion; vs vehicle-treated group, p<0.05 Dunnett's test
Protocol: FIG. 1 represents an effect of compound 33 on infarct volume in rat t-MCAo model.
The infract volumes of total (open column), cortex (closed column) and subcortex (hatched column) were determined 71 hrs after reperfusion. Data are presented as mean±SEM. *p<0.05 vs vehicle-treated group (Dunnett's test).
Effect on the Infarct Volume in Rat Transient MCA Occlusion (t-MCAo) Model.
Adult male Wistar rats (200-250 g) were anesthetized with 2% halothane in air. The right internal carotid artery (ICA) was carefully dissected. A silicon-coated suture (18 mm-long) was inserted into the ICA. Body temperature was maintained at 37° C. with a heating pad. […] After 1 hour of MCA occlusion, the thread was removed to allow reperfusion of the ischemic area. Rats were received intravenously 1 hour-infusion of vehicle (10% of HP-β-CD) or compound 33 dissolved in vehicle immediately after reperfusion.
To measure infarct volume, rats were killed at 71 hours of reperfusion. Brains were perfused transcardially with physiological saline, and removed from skulls, cut into 2-mm coronal sections. The slices were immersed in 2% triphenyltetrazolium chloride (TTC) solution at 37° C. for 30 minutes. All values were presented as mean±SEM. For statistical analyses, Dunnett's multiple-range test was used.

[2] = test system: Rat neutrophils; experiment: Elastase production by fMLP stimulation (elastase release inhibition); format: cell-based; conditions: elastase release from cytochalasin B-primed rat neutrophils, fMLP 1 μM, 10 minutes preincubation
Protocol: Test for Elastase Production by fMLP (N-formyl-Met-Leu-Phe)Stimulation
Rat neutrophils preparation was obtained 15-18 hours after intraperitoneal injection of a 1% sterile casein solution in saline (120 mL/kg). Cells were harvested by peritoneal lavage after the decapitation. The lavage fluid was ice-cold PBS (Phosphate-Buffered Saline). Peritoneal exudates were pooled, centrifuged and suspended in HBSS (Hanks' Balanced Salt Solution) at 1×10^7 cells/mL. Cytochalasin B (final concentration: 5 μg/mL) were added to prime the cells. The cells were added into a 96-well culture plate (190 μL/well) and then the compounds of the present invention at various concentrations (10^−7 to 3×10^−5 M) were added and incubated at 37° C. in an atmosphere of 5% CO2 in air. […]
Elastase activity in the incubated supernatant was measured using a specific elastase substrate, N-succinyl-L-alanyl-L-alanyl-L-proline-valine-MCA (Peptide Institue, Inc., Osaka), 0.12 mM in 50 mM Tris-HCl (pH 8.0). […]
Elastase release-inhibiting activity (inhibition ratio) was calculated according to the following equation: Inhibition ratio (%) […]×100 wherein A stands for a fluorescence intensity when fMLP (1 μM) was added; B stands for a fluorescence intensity when fMLP (1 μM) and the present compound were added; and C stands for a fluorescence intensity when fMLP (1 μM) was not added. […]

SMILES	cortex infarct volume [1]	total infarct volume [1]	IC50 ([2]; Neutrophil) [µM]	IC50 [2] [µM]
CCCC[C@@H](O)/C=C\CCCCCCCCCCCCS(=O)(=O)[O-].[Na+] [Compound 33, Sodium (R)-(Z)-15-hydroxynonadec-13-ene-1-sulfonate]	significantly reduced	significantly reduced	15	
CCCC[C@@H](O)/C=C\CCCCCCC/C=C\CCCS(=O)(=O)O [Compound 23, Sodium (R)-(4Z, 13Z)-15-hydroxynonadeca-1,13-diene-1-sulfonate]				9.67

Reference: US20050020680A1, “Hydroxyfattysulfonic acid analogs” (priority 2001, published 2005)
